Measured values from US20200123495A1, “COMPOSITION AND METHOD FOR CONTROLLING INSECTS AND MICR[…] PSEUDOMONAS […]” (Academia Sinica, priority 2014, published 2020).

What was measured:
[1] = CAS plate assay (removal of iron from the CAS dye); settings: 1.2 and 1.5 mg pyoverdine on CAS agar plates
Procedure: Chrome azurol S (CAS) is a universal method that detects the mobilization of iron, which assays siderphores production. To prepare 100 ml CAS dye, 60.5 mg CAS powder (Sigma) was dissolved in 50 ml distilled water and mixed with 10 ml of 1 mM iron solution (anhydration FeCl3, Alfa Aesar). Then, 40 ml of 72.9 mg HDTMA (Sigma) was added slowly to 60 ml CAS solution with FeCl3 and autoclaved to sterilize. After CAS cool down can be hand held, one-tenth of CAS solution mixed with LP agar medium and immediately poured into plates.
Different concentration of purified pyoverdine was injected into the hole (5 mm) of CAS plates. Plates were incubated at 28° C. for 6 h or until yellow halo appearance.

[2] = system: Xanthomonas oryzae pv. oryzae (Xoo)
Drosophila melanogaster = settings: previous study, Liu et al. 2010; cited from earlier work

Row | Molecule | CAS reaction rate [1] | IC50 toward Xoo (inhibition of cell growth) [2] | LD50 against Xoo (lethal dose) [2] | mortality in Drosophila larvae (Drosophila melanogaster)
1 | C[C@@H](O)[C@@H](NC(=O)[C@@H](NC(=O)[C@H](CCCCN)NC(=O)[C@@H](CO)NC(=O)C1CCN=C2C(NC(=O)CCC(=O)O)=Cc3cc(O)c(O)cc3N21)C(O)c1c[nH]cn1)C(=O)N[C@@H](CO)C(=O)N[C@H]1CCCN(O)C1=O (stereo partly drawn) [pyoverdine, Q-DSer-Lys-OHHis-aDThr-Ser-cOHOrn] | rapidly detected | about 2.035 mg/ml | about 1.98 mg/ml | 
2 | recombinant TccC: TccC gene from P. taiwanensis overexpressed in E. coli (SEQ ID NO:2) |  |  |  | increase the mortality
